Where a name gives a salt, the structure may show the parent alone. Read-outs that look alike come from different tables or passages of the source.
Key:
[1] = target: T1, 14-3-3ζ:BAD-112-136F interactions (Homo sapiens, UniProt P63104); assay: BRET sensor screen for disruption of 14-3-3ζ-Rluc8:BAD-112-136F-mCitrine in living NIH-3T3 cells; type: cell-based, murine; set-up: inhibition: dose or concentration left out as unconfirmed; BRET reduction on NIH-3T3: unit not given here; conditions: for inhibition / inhibition at 20 µM: NIH3T3, 3 h, read-out: BRET reduction on NIH-3T3
T1 construct: expressed in transfected cells; host or cells: NIH-3T3 fibroblasts, bi-directional pBI-CMV1 plasmid
T1 sequence (P63104 1-245): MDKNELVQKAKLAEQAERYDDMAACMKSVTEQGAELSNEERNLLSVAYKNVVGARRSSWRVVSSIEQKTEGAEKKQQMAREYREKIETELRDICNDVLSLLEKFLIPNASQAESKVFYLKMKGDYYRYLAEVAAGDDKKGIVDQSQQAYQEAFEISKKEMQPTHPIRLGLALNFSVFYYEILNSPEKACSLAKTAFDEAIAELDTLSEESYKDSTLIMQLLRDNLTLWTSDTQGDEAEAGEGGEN
Description: The Z’-score, which evaluates the robustness of an HTS assay readout, was calculated according to standard protocols. For the HTS, 384-well plates were coated with 100 μg/mL poly-L-ornithine (Sigma, Missouri, United States; #P3655) overnight at 37 °C, followed by rinsing with sterilized water. NIH-3T3 cells were transfected with the BRET sensor two days prior to experimentation, followed by replating onto the pre-coated 384-well plates at a density of 20,000 cells/well. After 24 h of incubation at 37 °C, growth media was replaced by Krebs buffer (pH 7.4).

[2] = tested on: NIH-3T3 cells; assay: Hoechst/propidium iodide cell death assay in NIH-3T3; type: cell-based; conditions: for cytotoxicity at 20 µM: Mus musculus, NIH3T3, 24 h, read-out: Percentage of cell death % 24h NIH3t3
From the text: (§1) A high-content imaging system (PerkinElmer; Operetta CLS), was used to quantify cell death and apoptosis by calculating the number of propidium iodide-positive cells relative to Hoechst-positive cells, and the number of Annexin V-positive cells relative to Hoechst-positive cells, respectively.

[3] = tested on: HT-29 cells; assay: Hoechst/propidium iodide cell death assay in HT-29; type: cell-based, human; conditions: for cytotoxicity at 20 µM: Homo sapiens
From the text: as §1

[4] = tested on: Caco-2 cells; type: cell-based; conditions: for Percentage of cell death % 24h CACO-2: 20 µM; for Percentage of cell death % 48h, Caco-2: 20 μM
From the text: as §1

[5] = NIH-3T3 cells, hits from the primary screen
[6] = NIH-3T3 expressing BRET sensor, 20 µM, 3 h
[7] = HT-29, 24 h, 20 µM, 24 h, read-out: Percentage of cell death % 24h HT-29
[8] = HT-29, 48 h, HT-29, 48h, 20 μM, read-out: Percentage of cell death % 48h, HT-29
[9] = HT-29, 24 h, read-out: Percentage of cell death % 24h HT-29
[10] = HT-29, 48 h, read-out: Percentage of cell death % 48h, HT-29

COc1cc2nccc(Oc3ccc(NC(=O)Nc4cc(C)on4)c(Cl)c3)c2cc1OC [Tivozanib (AV-951), Tivozanib]
inhibition [1, 5]: 26.5%
inhibition at 20 µM [1, 6]: 26.5%
cytotoxicity at 20 µM ([2]; 20 µM, 24 h): 10.8%
Percentage of cell death % 48h, NIH3T3 [2]: 31.2285%
cytotoxicity at 20 µM [3, 7]: 1.65%
cytotoxicity at 20 µM [3, 8]: 23%
Percentage of cell death % 24h CACO-2 [4]: 5.391%
Percentage of cell death % 48h, Caco-2 [4]: 6.001%

COc1cc(C(=O)O)ccc1NC(=O)[C@@H]1N[C@@H](CC(C)(C)C)[C@](C#N)(c2ccc(Cl)cc2F)[C@H]1c1cccc(Cl)c1F [RG7388]
inhibition [1, 5]: 41.6%
inhibition at 20 µM [1, 6]: 41.6%
cytotoxicity at 20 µM ([2]; 20 µM, 24 h): 35.1%
Percentage of cell death % 48h, NIH3T3 [2]: 20.6788%
cytotoxicity at 20 µM [3, 7]: 9.54%
cytotoxicity at 20 µM [3, 8]: 50%
Percentage of cell death % 24h CACO-2 [4]: 4.882%
Percentage of cell death % 48h, Caco-2 [4]: 4.655%

C[C@H](CCC(=O)O)[C@H]1CC[C@H]2[C@@H]3CC[C@@H]4C[C@H](O)CC[C@]4(C)[C@H]3CC[C@]12C [Lithocholic Acid]
inhibition [1, 5]: 40.1%
inhibition at 20 µM [1, 6]: 40.1%
cytotoxicity at 20 µM ([2]; 20 µM, 24 h): 2.68%
Percentage of cell death % 48h, NIH3T3 [2]: 0.3149%
cytotoxicity at 20 µM [3, 7]: 0.614%
cytotoxicity at 20 µM [3, 8]: 2.06%
Percentage of cell death % 24h CACO-2 [4]: 2.024%
Percentage of cell death % 48h, Caco-2 [4]: 1.756%

Cn1ncc(Cl)c1-c1cc(C(=O)N[C@H](CN)Cc2cccc(F)c2)sc1Cl [Afuresertib]
inhibition [1, 5]: 27.8%
inhibition at 20 µM [1, 6]: 27.8%
cytotoxicity at 20 µM ([2]; 20 µM, 24 h): 57.7%
Percentage of cell death % 48h, NIH3T3 [2]: 38.6266%
cytotoxicity at 20 µM [3, 7]: 3.99%
cytotoxicity at 20 µM [3, 8]: 37.5%
Percentage of cell death % 24h CACO-2 [4]: 23.3726%
Percentage of cell death % 48h, Caco-2 [4]: 43.2801%

CCCCc1oc2ccc(NS(C)(=O)=O)cc2c1C(=O)c1ccc(OCCCN(CCCC)CCCC)cc1 [Dronedarone HCl]
BRET reduction on NIH-3T3 [1, 5]: 49.6356
BRET reduction on NIH-3T3 [1, 6]: 49.6356
Percentage of cell death % 24h NIH3t3 ([2]; 20 µM, 24 h): 85.6589%
Percentage of cell death % 48h, NIH3T3 [2]: 84.99%
Percentage of cell death % 24h HT-29 ([3]; 20 µM, 24 h): 82.9811%
Percentage of cell death % 48h, HT-29 ([3]; HT-29, 48h, 20 μM): 91.5188%
Percentage of cell death % 24h CACO-2 [4]: 77.641%
Percentage of cell death % 48h, Caco-2 [4]: 87.4152%

Clc1ccc(C(Cn2ccnc2)OCc2c(Cl)cccc2Cl)c(Cl)c1 (stereo not drawn) [Isoconazole nitrate]
inhibition [1, 5]: 45.1%
inhibition at 20 µM [1, 6]: 45.1%
cytotoxicity at 20 µM ([2]; 20 µM, 24 h): 8.57%
Percentage of cell death % 48h, NIH3T3 [2]: 4.218%
cytotoxicity at 20 µM [3, 7]: 1.88%
cytotoxicity at 20 µM [3, 8]: 3.88%
Percentage of cell death % 24h CACO-2 [4]: 5.943%
Percentage of cell death % 48h, Caco-2 [4]: 5.407%

Clc1ccc(CO/N=C(\Cn2ccnc2)c2ccc(Cl)cc2Cl)c(Cl)c1.O=[N+]([O-])O [Oxiconazole (nitrate)]
Percentage of cell death % 24h NIH3t3 ([2]; 20 µM, 24 h): 5.3556%
Percentage of cell death % 48h, NIH3T3 [2]: 4.864%
Percentage of cell death % 24h HT-29 ([3]; 20 µM, 24 h): 3.543%
Percentage of cell death % 48h, HT-29 ([3]; HT-29, 48h, 20 μM): 5.935%
Percentage of cell death % 24h CACO-2 [4]: 8.851%
Percentage of cell death % 48h, Caco-2 [4]: 7.056%

CCCCCCCCCCCCCCCC[n+]1ccccc1 [Cetylpyridinium Chloride]
cytotoxicity at 20 µM [2]: 81.9%
Percentage of cell death % 48h, NIH3T3 [2]: 74.7179%
cytotoxicity at 20 µM [3, 9]: 27.2%
cytotoxicity at 20 µM [3, 10]: 76.9%
Percentage of cell death % 24h CACO-2 [4]: 22.2457%
Percentage of cell death % 48h, Caco-2 [4]: 63.7687%

COc1cc(C)c(/C=C/C(C)=C/C=C/C(C)=C/C(=O)O)c(C)c1C [Acitretin]
inhibition at 20 µM [1]: 31.9%
BRET reduction on NIH-3T3 [1, 5]: 31.8517
cytotoxicity at 20 µM [2]: 0.791%
Percentage of cell death % 48h, NIH3T3 [2]: 1.816%
cytotoxicity at 20 µM [3, 9]: 0.862%
cytotoxicity at 20 µM [3, 10]: 1.82%

CCOc1cc(CC(=O)N[C@@H](CC(C)C)c2ccccc2N2CCCCC2)ccc1C(=O)O [Repaglinide]
inhibition [1, 5]: 28.4%
inhibition at 20 µM [1, 6]: 28.4%
cytotoxicity at 20 µM ([2]; 20 µM, 24 h): 0.236%
Percentage of cell death % 48h, NIH3T3 [2]: 0.185%
cytotoxicity at 20 µM [3, 7]: 0.354%
cytotoxicity at 20 µM [3, 8]: 1.01%
